{"source": "patent US11739074B2", "about": "“Ras inhibitors” (Revolution Medicines, Inc., priority 2019, dated 2023)", "assay_type_in_all_cases": "cell-based", "key": {"AsPC-1 (K-Ras G12D) [1]": {"tested_on": "AsPC-1 (K-Ras G12D)", "experiment": "Potency assay: pERK in AsPC-1 cells", "conditions": "Homo sapiens, ASPC1; AsPC-1 cells, K-Ras G12D; read-out: pERK EC50 (AsPC-1 KRAS G12D)"}, "NCI-H358 (K-Ras G12C)": {"tested_on": "NCI-H358 (K-Ras G12C)", "experiment": "CellTiter-Glo cell viability assay, H358", "conditions": "Homo sapiens, NCI-H358, 120 h, NCI-H358, K-Ras G12C, 5-day treatment; read-out: H358 Cell Viability IC50", "method": "Determination of Cell Viability in RAS Mutant Cancer Cell Lines\nProtocol: CellTiter-Glo® Cell Viability Assay\nNote—The following protocol describes a procedure for monitoring cell viability of K-Ras mutant cancer cell lines in response to a compound of the invention. Other RAS isoforms may be employed, though the number of cells to be seeded will vary based on cell line used.\nTest compounds (132.5 nL) were directly dispensed into the assay plates containing cells. […] On day 5, assay plates and their contents were equilibrated to room temperature for approximately 30 minutes. […] Luminescence was measured using the PerkinElmer Enspire. Data were normalized by the following: (Sample signal/Avg. DMSO)*100. The data were fit using a four-parameter logistic fit."}, "AsPC-1 (K-Ras G12D) [2]": {"tested_on": "AsPC-1 (K-Ras G12D)", "experiment": "CellTiter-Glo cell viability assay, AsPC-1", "conditions": "Homo sapiens, ASPC1, 120 h, AsPC-1, K-Ras G12D, 5-day treatment; read-out: AsPC-1 Cell Viability IC50", "method_in_brief": "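Cells already in plates received compound by direct dispensing. After incubation to day 5, plates sat at room temperature roughly 30 minutes, then ATP-based luminescence was measured and values derived from a four-parameter fit of DMSO-normalized data.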"}}, "note": "pEC50, pIC50: −log10 of the molar value."}
{"smiles": "CCn1c(-c2cccnc2[C@H](C)OC)c2c3cc(ccc31)-c1csc(n1)C[C@H](NC(=O)[C@H](C(C)C)N(C)C(=O)N(C)CCN(C)C(=O)[C@H]1CN1)C(=O)N1CCC[C@H](N1)C(=O)OCC(C)(C)C2", "note": "[Compound 216]", "values": [{"measurement": "pEC50", "setting": "AsPC-1 (K-Ras G12D) [1]", "value": "> 5.30"}, {"measurement": "pIC50", "setting": "NCI-H358 (K-Ras G12C)", "value": "7.00 to 8.00"}, {"measurement": "pIC50", "setting": "AsPC-1 (K-Ras G12D) [2]", "value": "6.00 to 7.00"}]}
{"smiles": "CCn1c(-c2cccnc2[C@H](C)OC)c2c3cc(ccc31)-c1csc(n1)C[C@H](NC(=O)[C@H](C(C)C)N(C)C(=O)N(C)CCN(C)C(=O)[C@@H]1CN1)C(=O)N1CCC[C@H](N1)C(=O)OCC(C)(C)C2", "note": "[Compound 217]", "values": [{"measurement": "pEC50", "setting": "AsPC-1 (K-Ras G12D) [1]", "value": "> 5.30"}, {"measurement": "pIC50", "setting": "NCI-H358 (K-Ras G12C)", "value": "7.00 to 8.00"}, {"measurement": "pIC50", "setting": "AsPC-1 (K-Ras G12D) [2]", "value": "6.00 to 7.00"}]}
{"smiles": "CCn1c(-c2cccnc2[C@H](C)OC)c2c3cc(ccc31)-c1csc(n1)C[C@H](NC(=O)[C@H](C(C)C)N(C)C(=O)N1CCCN(C(=O)[C@H]3CN3)CC1)C(=O)N1CCC[C@H](N1)C(=O)OCC(C)(C)C2", "note": "[Compound 222]", "values": [{"measurement": "pEC50", "setting": "AsPC-1 (K-Ras G12D) [1]", "value": "> 5.30"}, {"measurement": "pIC50", "setting": "NCI-H358 (K-Ras G12C)", "value": "> 8.00"}, {"measurement": "pIC50", "setting": "AsPC-1 (K-Ras G12D) [2]", "value": "6.00 to 7.00"}]}
{"smiles": "CCn1c(-c2cccnc2[C@H](C)OC)c2c3cc(ccc31)-c1csc(n1)C[C@H](NC(=O)[C@H](C(C)C)N(C)C(=O)N1CCCN(C(=O)[C@@H]3CN3)CC1)C(=O)N1CCC[C@H](N1)C(=O)OCC(C)(C)C2", "note": "[Compound 223]", "values": [{"measurement": "pEC50", "setting": "AsPC-1 (K-Ras G12D) [1]", "value": "> 5.30"}, {"measurement": "pIC50", "setting": "NCI-H358 (K-Ras G12C)", "value": "7.00 to 8.00"}, {"measurement": "pIC50", "setting": "AsPC-1 (K-Ras G12D) [2]", "value": "6.00 to 7.00"}]}
{"smiles": "CCn1c(-c2cccnc2[C@H](C)OC)c2c3cc(ccc31)-c1csc(n1)C[C@H](NC(=O)[C@H](C(C)C)N(C)C(=O)N1CC(CN(C)C(=O)[C@H]3CN3)C1)C(=O)N1CCC[C@H](N1)C(=O)OCC(C)(C)C2", "note": "[Compound 224]", "values": [{"measurement": "pEC50", "setting": "AsPC-1 (K-Ras G12D) [1]", "value": "> 5.30"}, {"measurement": "pIC50", "setting": "NCI-H358 (K-Ras G12C)", "value": "7.00 to 8.00"}, {"measurement": "pIC50", "setting": "AsPC-1 (K-Ras G12D) [2]", "value": "6.00 to 7.00"}]}
{"smiles": "CCn1c(-c2cccnc2[C@H](C)OC)c2c3cc(ccc31)-c1csc(n1)C[C@H](NC(=O)[C@H](C(C)C)N(C)C(=O)N1CC(CN(C)C(=O)[C@@H]3CN3)C1)C(=O)N1CCC[C@H](N1)C(=O)OCC(C)(C)C2", "note": "[Compound 225]", "values": [{"measurement": "pEC50", "setting": "AsPC-1 (K-Ras G12D) [1]", "value": "> 5.30"}, {"measurement": "pIC50", "setting": "NCI-H358 (K-Ras G12C)", "value": "7.00 to 8.00"}, {"measurement": "pIC50", "setting": "AsPC-1 (K-Ras G12D) [2]", "value": "6.00 to 7.00"}]}
{"smiles": "CCn1c(-c2cccnc2[C@H](C)OC)c2c3cc(ccc31)-c1csc(n1)C[C@H](NC(=O)[C@H](C(C)C)N(C)C(=O)N1CC[C@@H](N(C)C(=O)[C@H]3CN3)C1)C(=O)N1CCC[C@H](N1)C(=O)OCC(C)(C)C2", "note": "[Compound 226]", "values": [{"measurement": "pEC50", "setting": "AsPC-1 (K-Ras G12D) [1]", "value": "> 5.30"}, {"measurement": "pIC50", "setting": "NCI-H358 (K-Ras G12C)", "value": "7.00 to 8.00"}, {"measurement": "pIC50", "setting": "AsPC-1 (K-Ras G12D) [2]", "value": "5.00 to 6.00"}]}
{"smiles": "CCn1c(-c2cccnc2[C@H](C)OC)c2c3cc(ccc31)-c1csc(n1)C[C@H](NC(=O)[C@H](C(C)C)N(C)C(=O)N1CC[C@@H](N(C)C(=O)[C@@H]3CN3)C1)C(=O)N1CCC[C@H](N1)C(=O)OCC(C)(C)C2", "note": "[Compound 227]", "values": [{"measurement": "pEC50", "setting": "AsPC-1 (K-Ras G12D) [1]", "value": "> 5.30"}, {"measurement": "pIC50", "setting": "NCI-H358 (K-Ras G12C)", "value": "7.00 to 8.00"}, {"measurement": "pIC50", "setting": "AsPC-1 (K-Ras G12D) [2]", "value": "5.00 to 6.00"}]}
{"smiles": "CCn1c(-c2cccnc2[C@H](C)OC)c2c3cc(ccc31)-c1csc(n1)C[C@H](NC(=O)[C@H](C(C)C)N(C)C(=O)N1CC[C@H](N(C)C(=O)[C@H]3CN3)C1)C(=O)N1CCC[C@H](N1)C(=O)OCC(C)(C)C2", "note": "[Compound 228]", "values": [{"measurement": "pEC50", "setting": "AsPC-1 (K-Ras G12D) [1]", "value": "> 5.30"}, {"measurement": "pIC50", "setting": "NCI-H358 (K-Ras G12C)", "value": "7.00 to 8.00"}, {"measurement": "pIC50", "setting": "AsPC-1 (K-Ras G12D) [2]", "value": "6.00 to 7.00"}]}
{"smiles": "CCn1c(-c2cc(C3CCN(C)CC3)cnc2[C@H](C)OC)c2c3cc(ccc31)-c1cc(O)cc(c1)C[C@H](NC(=O)[C@H](C1CCCC1)N(C)C(=O)CN(C)C(=O)[C@H]1CN1)C(=O)N1CCC[C@H](N1)C(=O)OCC(C)(C)C2", "note": "[Compound 230]", "values": [{"measurement": "pEC50", "setting": "AsPC-1 (K-Ras G12D) [1]", "value": "> 5.30"}, {"measurement": "pIC50", "setting": "NCI-H358 (K-Ras G12C)", "value": "7.00 to 8.00"}, {"measurement": "pIC50", "setting": "AsPC-1 (K-Ras G12D) [2]", "value": "7.00 to 8.00"}]}
{"smiles": "CCn1c(-c2cccnc2[C@H](C)OC)c2c3cc(ccc31)-c1cc(O)cc(c1)C[C@H](NC(=O)[C@H](C(C)C)N(C)C(=O)[C@H]1CCCN(C(=O)[C@@H]3CN3)C1)C(=O)N1CCC[C@H](N1)C(=O)OCC(C)(C)C2", "note": "[Compound 236]", "values": [{"measurement": "pEC50", "setting": "AsPC-1 (K-Ras G12D) [1]", "value": "> 5.30"}, {"measurement": "pIC50", "setting": "NCI-H358 (K-Ras G12C)", "value": "> 8.00"}, {"measurement": "pIC50", "setting": "AsPC-1 (K-Ras G12D) [2]", "value": "5.00 to 6.00"}]}
{"smiles": "CCn1c(-c2cccnc2[C@H](C)OC)c2c3cc(ccc31)-c1cc(O)cc(c1)C[C@H](NC(=O)[C@H](C(C)C)N(C)C(=O)[C@@]1(C)CCCN1C(=O)[C@H]1CN1)C(=O)N1CCC[C@H](N1)C(=O)OCC(C)(C)C2", "note": "[Compound 239]", "values": [{"measurement": "pEC50", "setting": "AsPC-1 (K-Ras G12D) [1]", "value": "> 5.30"}, {"measurement": "pIC50", "setting": "NCI-H358 (K-Ras G12C)", "value": "7.00 to 8.00"}, {"measurement": "pIC50", "setting": "AsPC-1 (K-Ras G12D) [2]", "value": "6.00 to 7.00"}]}
{"smiles": "CCn1c(-c2cccnc2[C@H](C)OC)c2c3cc(ccc31)-c1cc(O)cc(c1)C[C@H](NC(=O)[C@H](C(C)C)N(C)C(=O)[C@]1(C)CCCN1C(=O)[C@H]1CN1)C(=O)N1CCC[C@H](N1)C(=O)OCC(C)(C)C2", "note": "[Compound 243]", "values": [{"measurement": "pEC50", "setting": "AsPC-1 (K-Ras G12D) [1]", "value": "> 5.30"}, {"measurement": "pIC50", "setting": "NCI-H358 (K-Ras G12C)", "value": "6.00 to 7.00"}, {"measurement": "pIC50", "setting": "AsPC-1 (K-Ras G12D) [2]", "value": "6.00 to 7.00"}]}
{"smiles": "CCn1c(-c2cccnc2[C@H](C)OC)c2c3cc(ccc31)-c1cc(O)cc(c1)C[C@H](NC(=O)[C@H](C(C)C)N(C)C(=O)[C@@H]1CO[C@H](C)CN1C(=O)[C@H]1CN1)C(=O)N1CCC[C@H](N1)C(=O)OCC(C)(C)C2", "note": "[Compound 248]", "values": [{"measurement": "pEC50", "setting": "AsPC-1 (K-Ras G12D) [1]", "value": "> 5.30"}, {"measurement": "pIC50", "setting": "NCI-H358 (K-Ras G12C)", "value": "7.00 to 8.00"}, {"measurement": "pIC50", "setting": "AsPC-1 (K-Ras G12D) [2]", "value": "6.00 to 7.00"}]}
